≈ marks a conversion by molar mass, not a printed value.

The values below come from article PMC12174528 (Asian Pacific Journal of Cancer Prevention : APJCP, 2025).

Data set [1] has as its system normal human diploid fibroblasts. Particulars: cited from earlier work.
The next data set has as its system MCF-7 colony formation. The data set is described as follows: Cell proliferation. The format is cell-based, human. Particulars: MCF-7, treated with IC50, 5 days; negative control 100%.
Another data set has as its system MCF-7 cell migration. The data set is described as follows: Cell migration. The format is cell-based, human. Particulars: for migration area at 24 hours: MCF-7, treated with IC50, 24 hours, negative control 44.02%.
For the next data set, the system named is MCF-7 cancer cell line. The data set is described as follows: Cell viability assay. The format is cell-based. The note with it: Homo sapiens, MCF7, 24 h, read-out: IC50 (cytotoxicity, SRB assay). Background: Sulforhodamine B stains cellular protein and so reports cell mass.

As to `C[C@@H]1O[C@@H](O[C@@H]2[C@@H](O)[C@H](OCCc3ccc(O)c(O)c3)O[C@H](CO)[C@H]2OC(=O)/C=C/c2ccc(O)c(O)c2)[C@H](O)[C@H](O)[C@H]1O` [ACT, Acteoside], the “toxic effects on normal human diploid fibroblasts” value in data set [1] is “no toxic effects”. Also, in the data set with MCF-7 colony formation, the “colony formation relative to the negative control” value is 39.7%. In addition, in the data set with MCF-7 cell migration, the “migration area at 24 hours” value is recorded as 14.38%. Moreover, in the data set with MCF-7 cancer cell line, the concentration for half-maximal inhibition (IC50) amounted to 135 µg/mL (≈ 216 µM).

On to `C[C@H]1c2cccc(O)c2C(=O)C2=C(O)[C@]3(O)C(=O)C(C(N)=O)=C(O)[C@@H](N(C)C)[C@@H]3[C@@H](O)[C@@H]21` [DOX, doxycycline], for which the “colony formation relative to the negative control” value with MCF-7 colony formation is 35.56%. The “migration area at 24 hours” value with MCF-7 cell migration is 6.8%. For the same compound, in the data set with MCF-7 cell migration (MCF-7, treated with IC50, 48 hours, negative control 53.99%), the “migration area at 48 hours” value is recorded as -16.50%. Moreover, in the data set on MCF-7 cancer cell line, the IC50 worked out at 343 µg/mL (≈ 773 µM).

Broadly, the IC50 is the concentration that inhibits the measured activity by half.
